Values of other authors in patent US20060210485A1, “Pharmaceutical formulations” (priority 2003, published 2006).
Where a name gives a salt, the structure may show the parent alone.

Settings: solid tablets with a lactose excipient; adducts postulated via the Maillard reaction

- chemical stability in presence of lactose: undergoes degradation
SMILES: CNCCC(Oc1ccc(C(F)(F)F)cc1)c1ccccc1 (stereo not shown) [fluoxetine hydrochloride]
